According to patent publication US20150266908A1, “FLAME RETARDANT COMPRISING AROMATIC PHOSPHATE ESTER-BASED COMPOUND, AND METHOD FOR PREPARING SAME” (priority 2012, published 2015):

Test system: CHO cells
Experiment: Test on toxicity of DPBAP: chromosomal abnormality in CHO cells
Assay type: cell-based
Protocol: A test on the toxicity of the DPBAP in accordance with the method of the present invention was performed (by the Korea Research Institute of Chemical Technology). After treating the DPBAP to CHO cells, chromosomal abnormality was measured. Consequently, the increasing of the chromosomal abnormality was not observed in all of DPBAP treatment groups regardless of application of metabolic activation system. […] However, in the CHO cells, it was known that the polyploid and endoreduplication can be generally observed due to the over-proliferation, or other causes (Scott et al., 1990).

SMILES: CCCCNP(=O)(Oc1ccccc1)Oc1ccccc1 [DPBAP, Diphenylbutylaminophosphate]
- toxicity (overall conclusion) (CHO cells chromosomal abnormality test): no toxicity were observed
- increasing of the chromosomal abnormality (CHO cells, all DPBAP treatment groups, regardless of application of metabolic activation system): not observed
- cells dead (CHO cells, highest concentration of the test material): about 50%
- polyploid and endoreduplication (CHO cells, highest-concentration groups, treated during 24 hours): minority of polyploid and endoreduplication was observed
